Experimental data: patent US20080039515A1, “Arylpyrazoles And Methods Of Using Same For Control Of Insect Pests That Bore Into Trees” (The Texas A&M University System, priority 2004, published 2008)
Like-named read-outs stand apart in the source and are kept apart here.

Key:
[1] = system: loblolly pine trees, Pinus taeda L.; conditions: in vivo
Experimental: Treatment Methods: Trial 1: Loblolly pine trees, Pinus taeda L., 15-20 cm (=6-9 inch) diameter at breast height (DBH), were selected in March of the study year in a 20-year-old pine stand in east Texas (Angelina County). Each treatment was injected into four cardinal points about 0.3 m above the ground on each of 15 trees in April (16th-23rd) using the Arborjet Tree IV™ microinfusion system (Arborjet, Inc. Woburn, Mass.).
At the time of tree felling, a section of lower bole (˜60-80 cm) containing the injection points was taken from each injected tree. The bark was later removed around the injection points to determine if any damage had resulted from the installation of plugs and/or injection of chemicals. If damage was found, the length and width of any ‘lesions’ (discolored areas on the surface of the xylem) were measured.

[2] = system: cerambycid larvae; assay type: in vivo, cerambycids; conditions: for reduction of cerambycid larval feeding damage: May
Experimental: (§1) Study Sites: Two 20-year-old, recently thinned loblolly pine plantations were selected in Texas. Trees in one plantation were injected for use in a bolt study (Trial 1). Trees in ½ acre section of the second plantation were injected as part of a single-tree protection study (Trial 2). A staging area also was set up in the second plantation where bolts from the first plantation were exposed to bark beetles and wood borers.
After 1 (May 24), 3 (July 19) and 5 (September) months post-injection, 5 trees of each treatment were felled and two 1.5 m long bolts were removed from the 3 m and 8 m heights of the bole. Because southern pine beetle (SPB) populations were extremely low in east Texas during the study year, Ips engravers were used as alternative bark beetles for this study. The bolts were transported to a 20-year-old loblolly plantation that was recently thinned and contained fresh slash material. Each bolt was placed about 1 m apart on discarded, dry pine bolts to maximize surface area available for colonization as well as to discourage predation by ground and litter-inhabiting organisms. To facilitate timely bark beetle colonization, packets of bark beetle pheromones (racemic ipsdienol +lanerione combination, ipsenol or cis-verbenol; Phero Tech, Inc., Delta, BC, Canada) were attached separately to three 1 m stakes evenly spaced in the study area. Racemic ipsdienol and cis-verbenol were used with the second series of bolts deployed in July. The packets were removed after 2 weeks when signs of attacks (boring dust) were observed on most test bolts, signaling that naturally-produced pheromones were present.
Treatment Evaluation: Trial 1. The first and second series of bolts were retrieved 2.5 and 3 weeks, respectively, after deployment, after observing many cerambycid attacks on most of the bolts. In the laboratory, two 10×50 cm strips (total=1000 cm^2) of bark were removed from each bolt. Several measurements were made relating to construction of nuptial chambers and egg galleries and development of brood: • 1. Number of unsuccessful attacks—penetration to phloem, but no egg galleries. • 2. Number of successful attacks—construction of nuptial chamber and at least one egg gallery extending from it. • 3. Number and lengths of egg galleries with brood galleries radiating from them. • 4. Number and lengths of egg galleries without brood galleries. • 5. Cerambycid activity, estimated by overlaying a 100 cm^2 grid over a portion of each bark strip and counting the number of squares overlapping area where cerambycids had fed.
Treatment efficacy was determined by comparing Ips beetle attacks and egg gallery length and cerambycid feeding on treated and untreated bolts. The data were transformed by log10(x+1) to satisfy criteria for normality and homoscedasticity (Zar 1984) and analyzed by GLM and the Fishers Protected LSD test using the Statview statistical program.

[3] = system: Ips engraver beetles; assay: Trial 2 single-tree protection study: Ips attack, tree mortality and gallery construction on standing loblolly pine; assay type: in vivo; set-up: Length of Egg Galleries Total: unit not given here; conditions: for trees with early signs of fading crowns (number of 6 trees): 24 days after initial pheromone deployment; for Length of Egg Galleries Total / Length of Egg Galleries With Brood / Length of Egg Galleries With Brood % of Total / Length of Egg Galleries Without Brood / Length of Egg Galleries Without Brood % of Total / Number of Egg Galleries Total / Number of Egg Galleries With Brood % of Total / Number of Egg Galleries With Brood No. / Number of Egg Galleries Without Brood % of Total / Number of Egg Galleries Without Brood No. / Nuptial Chambers With Egg Galleries % of Total / Nuptial Chambers With Egg Galleries No. / Nuptial Chambers Without Egg Galleries % of Total / Nuptial Chambers Without Egg Galleries No. / Total Nuptial Chambers: logs cut after tree mortality or end of trial; for Mean # of Ips caught/trap / Number of Attacks/0.3 m bole section at 3 m after 24 days: Ips: standing loblolly pine; for Number of Attacks/0.3 m bole section at 3 m after 24 days: Ips: 24 days after pheromone deployment
Experimental: as §1
Population Monitoring: A clear panel of acetate (10 cm wide by 25 cm long) was attached to the center of each bolt after deployment of bolts or 2 m high on standing trees after deployment of pheromone baits to monitor arrival of bark beetles. The top surface of each panel was coated entirely with Stikem Special® trapping compound (Michel and Pelton, Emeryville, Calif.). The traps were left in place for two weeks.
Trial 2: Loblolly pine, 15-20 cm (=6-9 inch) DBH, also were selected in March of the study year in a recently thinned 20-year-old pine stand in east Texas. Each treatment (the same as those used in Trial 1) was injected into four cardinal points about 0.3 m above the ground on each of 6 trees in April (16th-23rd) using the Arborjet Tree IV™ system.
After 5 weeks post-injection (May 28), frills were cut with a hatchet into the sapwood between the injection points near the base of the tree. A cellulose. sponge was inserted into each cut and loaded with I0 ml of a 4:1 mix of sodium N-methyldithiocarbamate (MS) (Woodfume®; Osmose, Inc., Buffalo, N.Y.) plus dimethyl sulfoxide (DMSO) (Aldrich Chemical) (Roton 1987, Strom et al. 2004). […] The intent was to stress the tree and make it susceptible to attack by bark beetles without killing it. Pheromone packets containing racemic ipsdienol+lanerione, ipsenol or cis-verbenol were attached (June 7) atop 3 m stakes evenly spaced in between and around the study trees to encourage attack by the three Ips engraver species. […] The baits were changed every 4 weeks.
Trial 2. […] All visible Ips attacks and cerambycid egg niches were counted within the marked area. The number of trees with fading crowns also was recorded. Thereafter, the trees were evaluated weekly for crown fading. When mortality did occur, the trees were felled and two bolts taken and evaluated for attack success and gallery length as described in Trial 1. […] Treatment efficacy was determined by comparing tree survival, beetle attacks and egg gallery length on treated and untreated bolts. As before, data were transformed and analyzed by GLM and the Fisher's Protected LSD test using the Statview statistical program.

[4] = After 24 days from pheromone bait deployment

SMILES: N#Cc1nn(-c2c(Cl)cc(C(F)(F)F)cc2Cl)c(N)c1[S+]([O-])C(F)(F)F (stereo not shown) [Fip, 5-amino-3-cyano-1-(2,6-dichloro-4-trifluoromethylphenyl)-4-trifluoromethylsulfinylpyrazole]
- Lesion Length ([1]; 1 month): 4.1 a cm
- Lesion Width ([1]; 1 month): 1.5 a cm
- Lesion Length ([1]; 3 months): 4.1 a cm
- Lesion Width ([1]; 3 months): 1.4 cm
- phloem area fed upon by cerambycid larvae ([2]; July, bolts from 3 m): 2%
- reduction of cerambycid larval feeding damage ([2]; bolts from 3 m): 82%
- reduction of cerambycid larval feeding damage ([2]; bolts from 8 m): 55%
- trees with early signs of fading crowns (number of 6 trees) [3]: None
- Pct of Trees w/Fading Crowns [3, 4]: 0.0 Pct
- Pct of Trees w/Fading Crowns ([3]; After 32 days): 0.0 Pct
- Pct of Trees w/Fading Crowns ([3]; After 39 days): 0.0 Pct
- Pct of Trees w/Fading Crowns ([3]; After 46 days): 0.0 Pct
- Pct of Trees w/Fading Crowns ([3]; After 52 days): 0.0 Pct
- Pct of Trees w/Fading Crowns ([3]; After 59 days): 0.0 Pct
- Pct of Trees w/Fading Crowns ([3]; After 66 days): 0.0 Pct
- Length of Egg Galleries Total ([3]; bolt height 3 m): 6.0
- Length of Egg Galleries With Brood ([3]; bolt height 3 m): 2.5 cm
- Length of Egg Galleries With Brood % of Total ([3]; bolt height 3 m): 41.7%
- Length of Egg Galleries Without Brood ([3]; bolt height 3 m): 3.5 cm
- Length of Egg Galleries Without Brood % of Total ([3]; bolt height 3 m): 58.3%
- Number of Egg Galleries Total ([3]; bolt height 3 m): 1.2
- Number of Egg Galleries With Brood % of Total ([3]; bolt height 3 m): 14.3%
- Number of Egg Galleries With Brood No. ([3]; bolt height 3 m): 0.2
- Number of Egg Galleries Without Brood % of Total ([3]; bolt height 3 m): 85.7%
- Number of Egg Galleries Without Brood No. ([3]; bolt height 3 m): 1.0
- Nuptial Chambers With Egg Galleries % of Total ([3]; bolt height 3 m): 18.9%
- Nuptial Chambers With Egg Galleries No. ([3]; bolt height 3 m): 1.2
- Nuptial Chambers Without Egg Galleries % of Total ([3]; bolt height 3 m): 81.1%
- Nuptial Chambers Without Egg Galleries No. ([3]; bolt height 3 m): 5.0
- Total Nuptial Chambers ([3]; bolt height 3 m): 6.2
- Length of Egg Galleries Total ([3]; bolt height 8 m): 22.7
- Length of Egg Galleries With Brood ([3]; bolt height 8 m): 2.5 cm
- Length of Egg Galleries With Brood % of Total ([3]; bolt height 8 m): 11.0%
- Length of Egg Galleries Without Brood ([3]; bolt height 8 m): 20.2 cm
- Length of Egg Galleries Without Brood % of Total ([3]; bolt height 8 m): 89.0%
- Number of Egg Galleries Total ([3]; bolt height 8 m): 7.7
- Number of Egg Galleries With Brood % of Total ([3]; bolt height 8 m): 6.5%
- Number of Egg Galleries With Brood No. ([3]; bolt height 8 m): 0.5
- Number of Egg Galleries Without Brood % of Total ([3]; bolt height 8 m): 93.5%
- Number of Egg Galleries Without Brood No. ([3]; bolt height 8 m): 7.2
- Nuptial Chambers With Egg Galleries % of Total ([3]; bolt height 8 m): 66.7%
- Nuptial Chambers With Egg Galleries No. ([3]; bolt height 8 m): 3.0
- Nuptial Chambers Without Egg Galleries % of Total ([3]; bolt height 8 m): 33.3%
- Nuptial Chambers Without Egg Galleries No. ([3]; bolt height 8 m): 1.5
- Total Nuptial Chambers ([3]; bolt height 8 m): 4.5
- Mean # of Ips caught/trap [3]: 5.2
- Number of Attacks/0.3 m bole section at 3 m after 24 days: Ips [3]: 1.3
- tree survival ([3]; standing trees, end of trial (66 days)): survived

SMILES: O=[N+]([O-])NC1=NCCN1Cc1ccc(Cl)nc1 [Imid]
- Lesion Length ([1]; 1 month): 7.3 b cm
- Lesion Width ([1]; 1 month): 1.7 a cm
- Lesion Length ([1]; 3 months): 6.1 a cm
- Lesion Width ([1]; 3 months): 1.3 cm
- reduction of cerambycid larval feeding damage ([2]; bolts from 3 m): 61%
- reduction of cerambycid larval feeding damage ([2]; bolts from 8 m): 98%
- trees with early signs of fading crowns (number of 6 trees) [3]: 3 of 6
- Pct of Trees w/Fading Crowns [3, 4]: 50.0 Pct
- Pct of Trees w/Fading Crowns ([3]; After 32 days): 83.3 Pct
- Pct of Trees w/Fading Crowns ([3]; After 39 days): 83.3 Pct
- Pct of Trees w/Fading Crowns ([3]; After 46 days): 83.3 Pct
- Pct of Trees w/Fading Crowns ([3]; After 52 days): 100.0 Pct
- Pct of Trees w/Fading Crowns ([3]; After 59 days): 100.0 Pct
- Pct of Trees w/Fading Crowns ([3]; After 66 days): 100.0 Pct
- Length of Egg Galleries Total ([3]; bolt height 3 m): 301.5
- Length of Egg Galleries With Brood ([3]; bolt height 3 m): 121.7 cm
- Length of Egg Galleries With Brood % of Total ([3]; bolt height 3 m): 40.4%
- Length of Egg Galleries Without Brood ([3]; bolt height 3 m): 179.8 cm
- Length of Egg Galleries Without Brood % of Total ([3]; bolt height 3 m): 59.6%
- Number of Egg Galleries Total ([3]; bolt height 3 m): 38.2
- Number of Egg Galleries With Brood % of Total ([3]; bolt height 3 m): 28.8%
- Number of Egg Galleries With Brood No. ([3]; bolt height 3 m): 11.0
- Number of Egg Galleries Without Brood % of Total ([3]; bolt height 3 m): 71.2%
- Number of Egg Galleries Without Brood No. ([3]; bolt height 3 m): 27.2
- Nuptial Chambers With Egg Galleries % of Total ([3]; bolt height 3 m): 98.0%
- Nuptial Chambers With Egg Galleries No. ([3]; bolt height 3 m): 8.0
- Nuptial Chambers Without Egg Galleries % of Total ([3]; bolt height 3 m): 2.0%
- Nuptial Chambers Without Egg Galleries No. ([3]; bolt height 3 m): 0.2
- Total Nuptial Chambers ([3]; bolt height 3 m): 8.2
- Length of Egg Galleries Total ([3]; bolt height 8 m): 217.5
- Length of Egg Galleries With Brood ([3]; bolt height 8 m): 115.5 cm
- Length of Egg Galleries With Brood % of Total ([3]; bolt height 8 m): 53.1%
- Length of Egg Galleries Without Brood ([3]; bolt height 8 m): 102.0 cm
- Length of Egg Galleries Without Brood % of Total ([3]; bolt height 8 m): 46.9%
- Number of Egg Galleries Total ([3]; bolt height 8 m): 33.2
- Number of Egg Galleries With Brood % of Total ([3]; bolt height 8 m): 42.7%
- Number of Egg Galleries Without Brood % of Total ([3]; bolt height 8 m): 57.3%
- Number of Egg Galleries Without Brood No. ([3]; bolt height 8 m): 19.0
- Nuptial Chambers With Egg Galleries % of Total ([3]; bolt height 8 m): 78.7%
- Nuptial Chambers With Egg Galleries No. ([3]; bolt height 8 m): 9.8
- Nuptial Chambers Without Egg Galleries % of Total ([3]; bolt height 8 m): 21.3%
- Nuptial Chambers Without Egg Galleries No. ([3]; bolt height 8 m): 2.7
- Total Nuptial Chambers ([3]; bolt height 8 m): 12.5
- Mean # of Ips caught/trap [3]: 8.5
- Number of Attacks/0.3 m bole section at 3 m after 24 days: Ips [3]: 12.7
- trees died due to bark beetle attack ([3]; standing trees, after 66 days): 100%
